{
  "source": "patent US6437103B1",
  "about": "“Fatty acid analogs for diagnosis of coronary artery disease” (Biostream Inc., priority 1999, dated 2002)",
  "origin": "cited, not measured here",
  "test_system": "myocardium",
  "details": "background statement citing Goodman et al. 1984; Liefhold and Eisenhut 1986",
  "data": [
    {"smiles": "O=C(O)CCCCCCCCCCCCCCc1ccc(I)cc1", "note": "[15-(p-iodophenyl)pentadecanoic acid]", "values": [
      {"measurement": "myocardial uptake", "value": "moderate"}
    ]}
  ]
}
